In patent US20090312277A1, “Compositions And Methods For Reversing Or Preventing Resistance Of A Cancer Cell To A Cytotoxic Agent” (priority 2004, published 2009):
Peptide text beside a SMILES is read from it. * marks the point of attachment. Cbz = O=C(OCc1ccccc1)*; CHN2 = [N-]=[N+]=C*; tBu = CC(C)(C)*

Experiments:
Purified cathepsin L = target: T1, Purified cathepsin L (Homo sapiens, UniProt P07711); experiment: Cathepsin L activity, fluorogenic substrate (CV-Cathepsin L Detection Kit); format: biochemical; conditions: inhibitor 10 μM, 200 ng cathepsin L; positive control 4e+5 AU, negative control 0.75e+5 AU
T1 construct: purchased Biomol, Plymouth Meeting, Pa
Description: Cathepsin L activity was measured using a commercially available kit according to the manufacturer's procedure (CV-Cathepsin L Detection Kit; Biomol, Plymouth Meeting, Pa.). Purified cathepsin L (Biomol, Plymouth Meeting, Pa.) (200 ng) was incubated with each inhibitor (10 μM) in a 96 well plate for 15 min at room temperature in 100 μl of reaction buffer (100 mM sodium acetate pH 5, 1 mM EDTA (ethylenediaminetetraacetic acid), and 4 mM dithiothreitol). The protease inhibitors tested were: lactacystin and inhibitors of cathepsin L, B, S, and K. 100 μl of a fluorogenic substrate (CV-Cathepsin L Detection Kit; Biomol, Plymouth Meeting, Pa.) were added and incubated for an additional 30 min at room temperature. Fluorescence was measured in a plate reader (Victor Multilabel Counter, Perkin Elmer) at 380 nm excitation and […] emission wavelengths.

p21/WAF1 = experiment: Western blot of p21/WAF1 in SKN-SH/R cells; format: cell-based, human; conditions: 24 hours
Description: (§1) Doxorubicin resistant human neuroblastoma cells (SKN-SH/R) were subjected, in 25 cm^2 flasks, to treatment with a cathepsin L inhibitor and doxorubicin each, alone or in combination. After 24 hours of incubation, culture medium was removed and the cells washed twice with PBS. Proteins were solubilized with 150 μl of lysis buffer (50 mM HEPES pH 7.4, 150 mM NaCl, 100 mM NaF, 1 mM MgCl2, 1.5 mM EGTA, 10% glycerol, 1% Triton X100, 1 μg/ml leupeptin, 1 mM phenyl-methyl-sulfonyl-fluoride). Equal quantities of protein were separated by electrophoresis on a 12% SDS-PAGE gel and transferred to Immobilon-P membranes (Millipore, Bedford, Mass.). P21/WAF1 and cleaved (active) caspase-3 were detected by reaction with specific primary antibodies (P21/WAF1 primary antibody from Santa Cruz Biotechnologies, Santa Cruz, Calif.; and caspase-3 primary antibody from Cell Signaling Technology, Inc., Beverly, Mass.) after one hour of incubation at room temperature in PBS (pH7.4). This was followed by incubation of the membrane for 1 hour at room temperature with presence of secondary anti-Rabbit antibody linked to horseradish peroxidase (Bio-Rad Laboratories, Hercules, Calif.) (1/1000 in PBS). Reactive bands were detected by chemiluminescence.

caspase-3 = experiment: Western blot of cleaved (active) caspase-3 in SKN-SH/R cells; format: cell-based, human; conditions: cathepsin L inhibitor 10 μM + doxorubicin 10^−6M, 24 hours
Description: as §1

[1] = system: drug resistant osteosarcoma cells (Saos2-R); experiment: Cell count of drug resistant osteosarcoma cells after siRNA or inhibitor and doxorubicin; format: cell-based; conditions: doxorubicin 10^−5 M for 48 hours, untreated 1.6e+6 AU
Text: The human cathepsin L siRNA was designed in our laboratory by studying a cDNA sequence of the human cathepsin L gene (SEQ ID NO: 2). We selected a segment defined by nucleotide numbers 91-111, sent that sequence to a contract laboratory (Dharmacon, Lafayette, Colo.), which synthesized an siRNA molecule based on the aforementioned segment. The segment of the human cathepsin L cDNA we used was: […] (91-111) (SEQ ID NO: 2). On the day before transfection, 3×10^5 drug resistant osteosarcoma cells (Saos2-R) were seeded in 6-well plates and grown in 2.5 ml of DMEM supplemented with 10% FBS. After 24 hours in culture, 25 μl of 20 μM stock solution of siRNA duplexes were transfected into cells with GeneSilencer™ SiRNA Transfection Reagent Kit (Gene Therapy Systems, Inc., San Diego, Calif.). Briefly, adherent cells were transfected in 6 well plates. Cells were about 70% confluent. In one tube, 5 μl of GeneSilencer™ was mixed with 25 μl of serum free medium. In a second tube, 25 μl of siRNA diluent was mixed with […] of serum free medium and 20 μl of siRNA (100 nM). After incubation of tubes 1 and 2, at room temperature for 5 min, they were mixed together into tube 3 and incubated for an additional 5 min. The content of tube 3 was added to the cells in the 6 well plates and incubated for 2 days before the addition of the drug. After 48 hours of incubation, doxorubicin (10^−5 M) was added and maintained in culture for an additional 48 hours before analysis. The cells were counted and protein lysates were used to detect cathepsin L expression by Western blot as described above.

SKN-SH/R cells = experiment: MTT cytotoxicity assay, doxorubicin-resistant neuroblastoma cells; format: cell-based; conditions: Homo sapiens, SK-N-SH, 96 h, read-out: IC50 (concentration at which 50% of cells remained viable) of the cytotoxic agent alone, SKN-SH/R cells, agent alone (control cells), 96 hours, MTT
Description: (§2) Human neuroblastoma SKN-SH cells (ATCC Cat. No. HTB-11) were cultured in Dulbecco's Modified Eagles Medium (DMEM; Gibco, Grand Island, N.Y.) supplemented with 10% fetal bovine serum (FBS; Sigma-Aldrich, St. Louis, Mo.) at 37° C. in a 95% Air/5% CO2 atmosphere. Resistant cells to doxorubicin (SKN-SH/R) were selected by stepwise exposure to drug concentrations ranging from 10^−9 M through 10^−6 M over a time period of three months. The resulting cell line was subjected to treatment with the doxorubicin alone or in combination with: proteosome inhibitor (Lactacystin), cathepsin B inhibitor (L-3-trans-(Propylcarbamoyl)oxirane-2-carbonyl]-L-isoleucyl-L praline), cathespin L inhibitor (Z-Phe-Tyr(t-Bu)-diazomethylketone), cathespin K inhibitor (1,3-Bis(N-CBZ-Leu-NH)-2-propanonel,3 -Di(N-carbonbenzoyloxy-L-leucyl)amino acetone), or cathespin S inhibitor (Z-Phe-Leu-COCHO.H2O), (all available from Calbiochem-Novabiochem, San Diego) at 10 μM each to determine whether they affect cell response to doxorubicin.
(§3) Cytotoxic activity of doxorubicin and cysteine protease inhibitors were quantitatively determined by a calorimetric assay utilizing 3-(4,5-dimethyl-2-thiazolyl) 2,5-diphenyl tetrazolium bromide (MTT; Sigma-Aldrich, St. Louis, Mo.). […] The optical density of this solution was measured at 570 nm and the percentage of viable cells estimated by comparison with untreated control cells. […]

[2] = system: Doxorubicin resistant human neuroblastoma cells (SKN-SH/R); experiment: Tumor growth of SKN-SH/R cells injected into nude mice; format: in vivo; conditions: nude mice, i.p. on day 11, 14, 17; doxorubicin alone 1.5 mg/Kg or iCL alone 30 mg/Kg
Description: Doxorubicin resistant human neuroblastoma cells (SKN-SH/R) cells grown into 75 cm^2 flasks were harvested by trypsinization and centrifuged to remove trypsin. The pellet was then reconstituted in culture medium at 10^7 cell/ml. On day one, 100 μl (10^6 cells) were injected to the right flank of nude mice (5 per group) and after the tumor became palpable at day 11, mice were assigned to four groups: 1) controls (treated with the vehicle DMSO), 2) Dox. 1.5 mg/kg (treated with doxorubicin alone 1.5 mg/Kg), 3) iCL 30 mg/Kg (treated with cathepsin L inhibitor alone at 30 mg/Kg), and 4) Dox 1.5 mg/Kg+iCL 30 mg/Kg (treated with the combination of doxorubicin 1.5 mg/Kg and cathepsin L inhibitor 30 mg/Kg). Intraperetoneal injections were given on day 11, day 14, and day 17.

SKN-SH wild type cells = experiment: MTT cytotoxicity assay, SKN-SH wild type cells; format: cell-based; conditions: Homo sapiens, SK-N-SH, 96 h, read-out: IC50 of the cytotoxic agent alone
Description: as §2, §3

Neuro2A wild type = experiment: MTT cytotoxicity assay, Neuro2A wild type cells; format: cell-based, murine; conditions: Mus musculus, N2a, 96 hours, read-out: IC50 of doxorubicin alone (converted)
Description: (§4) Cytotoxic activity of doxorubicin and cysteine protease inhibitors were quantitatively determined by a calorimetric assay utilizing 3-(4,5-dimethyl-2-thiazolyl) 2,5-diphenyl tetrazolium bromide (MTT; Sigma-Aldrich, St. Louis, Mo.). Briefly, cells were seeded at 10^4 cells/well in 96-well plates and maintained in culture for 24 hours at 37° C. in DMEM supplemented with 10% FBS. Drugs were added to designated wells and cells were incubated for 96 hours, following which MTT (10 μL of 5 mg/ml solution) was added to each 100 μl well and incubated for 4 hours at 37° C. The cells were solubilized by incubation with 100 μl of HCl 0.5N in isopropanol for 15 hours at 37° C. The optical density of this solution was measured at 570 nm and the percentage of viable cells estimated by comparison with untreated control cells.
(§5) The effect of cathepsin L inhibitor was tested on drug sensitive and resistant (R) cell lines corresponding to various cancer types, including the human neuroblastoma cell line SKN-SH (ATCC Cat. No. HTB-11), the murine neuroblastoma cell line Neuro2A (ATCC Cat. No. CCL-131), the osteosarcoma cells Saos2 (ATCC Cat. No. HTB-85) and the leukemia cell line HL-60 (ATCC Cat. No. CCL240). The cells were treated with cathepsin L inhibitor with or without doxorubicin as described above. Cell viability was calculated after 96 hours of incubation with the drug combination. […]

[3] = system: Neuro2A doxorubicin resistant cells; experiment: MTT cytotoxicity assay, Neuro2A doxorubicin resistant cells; format: cell-based, murine; conditions: Mus musculus, N2a, 96 hours, read-out: IC50 of doxorubicin alone (converted)
Description: as §4, §5

HL-60 wild type = experiment: MTT cytotoxicity assay, HL-60 wild type cells; format: cell-based; conditions: Homo sapiens, 96 hours, read-out: IC50 of doxorubicin alone (converted)
Description: as §4, §5

[4] = system: HL-60 doxorubicin resistance cells; experiment: MTT cytotoxicity assay, HL-60 doxorubicin resistant cells; format: cell-based; conditions: Homo sapiens, 96 hours, read-out: IC50 of doxorubicin alone (converted)
Description: as §4, §5

Saos2 wild type = experiment: MTT cytotoxicity assay, Saos2 wild type cells; format: cell-based; conditions: Homo sapiens, SAOS-2, 96 hours, read-out: IC50 of doxorubicin alone (converted)
Description: as §4, §5

[5] = system: Saos2 doxorubicin resistant; experiment: MTT cytotoxicity assay, Saos2 doxorubicin resistant cells; format: cell-based; conditions: Homo sapiens, SAOS-2, 96 hours, read-out: IC50 of doxorubicin alone (converted)
Description: as §4, §5

[6] = system: Drug-sensitive cells SKN-SH; experiment: Prevention of development of doxorubicin resistance, viable cell count, SKN-SH; format: cell-based, human; conditions: repeated four-day treatments with increasing doxorubicin
Text: (§6) As discussed above, inhibition of cathepsin L enhanced drug response only in drug-resistant cells. Another aspect of the present invention was to determine whether treatment of drug-sensitive cancer cells with this drug combination prevents them from becoming drug resistant. […] After 4 days in culture, the surviving cells were subjected to the same treatment for an additional four days. The cells were then subjected to two subsequent treatments for four days with 2.5×10^−8 M doxorubicin with or without the cathepsin L inhibitor at 10 μM. The surviving cells were then treated with doxorubicin 5×10^−8 M doxorubicin with or without cathepsin L (10 μM) for four days. At the end of each incubation period, viable cells were counted.

[7] = system: Drug-sensitive cells Saos2; experiment: Prevention of development of doxorubicin resistance, viable cell count, Saos2; format: cell-based; conditions: repeated four-day treatments with increasing doxorubicin
Text: as §6

[8] = system: breast cancer (MCF-7/doxR); experiment: cells; conditions: Homo sapiens, MCF7, 192 h, read-out: percentage of viable cells, single agent
Description: (§7) The following additional cell lines were tested: breast cancer (MCF-7/doxR) (MCF: ATCC Cat. No. HTB-22) and ovarian cancer (A2780/CR; European collection of cell culture cat# 931112519, Salisbury, UK). Cells were treated with doxorubicin (10^−5M) and/or a cathepsin L inhibitor (25 μM) for eight days. Viable cell number was counted and normalized to 100% of non-treated cells.

[9] = system: ovarian cancer (A2780/CR); experiment: cells; conditions: Homo sapiens, A2780, 192 h, read-out: percentage of viable cells, single agent
Description: as §7

T1 sequence (P07711 114-333, species assumed): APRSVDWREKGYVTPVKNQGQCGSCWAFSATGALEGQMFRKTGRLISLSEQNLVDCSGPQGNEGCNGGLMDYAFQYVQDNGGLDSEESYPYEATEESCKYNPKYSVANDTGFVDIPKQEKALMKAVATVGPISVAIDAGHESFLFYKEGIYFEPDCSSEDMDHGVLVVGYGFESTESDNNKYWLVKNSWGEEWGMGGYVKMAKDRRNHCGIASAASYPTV

cathepsin L activity (arbitrary units) in presence of inhibitor (Purified cathepsin L) [AU]	SMILES	expression of p21/WAF1 (Western blot), combination with doxorubicin 10^−6M (p21/WAF1; cathepsin L inhibitor 10 μM + doxorubicin 10^−6M)	expression of p21/WAF1 (Western blot), combination with doxorubicin 10^−7M (p21/WAF1; cathepsin L inhibitor 10 μM + doxorubicin 10^−7M)	caspase-3 activation (Western blot), combination with doxorubicin 10^−6M (caspase-3)	cell number, in combination with doxorubicin [1] [AU]	IC50 (SKN-SH/R cells) [nM]	average tumor volume on day 27, single agent [2]	IC50 (SKN-SH wild type cells) [nM]	IC50 (Neuro2A wild type) [nM]	IC50 [3] [nM]	IC50 (HL-60 wild type) [nM]	IC50 [4] [nM]	IC50 (Saos2 wild type) [nM]	IC50 [5] [nM]	change in percentage of viable cells over successive treatments, doxorubicin alone [6]	effect on percentage of viable cells over successive treatments, doxorubicin alone [7]	viability at 25 µM [8] [%]	viability at 25 µM [9] [%]
1e+5	CC(C)(C)Oc1ccc(C[C@H](NC(=O)[C@H](Cc2ccccc2)NC(=O)OCc2ccccc2)C(=O)C=[N+]=[N-])cc1 [cathepsin L inhibitor, Z-Phe-Tyr(t-Bu)-diazomethylketone] (Cbz-Phe-Tyr(tBu)-CHN2)	decreased expression of p21/WAF1	enhanced expression of p21/WAF1	increased caspase-3 activation	2.0e+5	–	–	–	–	–	–	–	–	–	–	–	–	–
–	COc1cccc2c1C(=O)c1c(O)c3c(c(O)c1C2=O)C[C@@](O)(C(=O)CO)C[C@@H]3O[C@H]1C[C@H](N)[C@H](O)[C@H](C)O1 [doxorubicin]	–	–	–	–	~178	approximately 1600 mm^3	~1.78	~31.6	~3160	~56.2	~31600	~100	~5620	no change	no affect	~50	~70
